In patent US8916702B2 (priority 2012, dated 2014) one finds EC50 data, which are given here for 44 compounds.

The term EC50 denotes the midpoint of the concentration-response curve.

In this assay the test system is HCV pseudoparticles (genotype 1a HCV E1 and E2 envelope, H77C isolate). The experiment in a line: microbe, parasite or virus in culture. As to conditions: Hepatitis C virus. It is filed as cell-based.
Where [1] appears, read: Huh-7, 48 h, read-out: Activity (EC50 class), HCV pseudoparticles, Huh7 cells, luciferase 2 days after infection, average of duplicates.
Setting [2] is: Huh-7, read-out: Activity (EC50 class), HCV pseudoparticles (genotype 1a, H77C) in Huh7 cells, EC50 expressed as class A/B.
[3] abbreviates: Huh-7, 48 h, read-out: Activity (EC50 class), HCV pseudoparticle infection of Huh7 cells, luciferase 2 days after infection, EC50 expressed as class A/B.
The mark [4] stands for this setting: Huh-7, 48 h, HCV pseudoparticles (genotype 1a, H77C) in Huh7 cells, average of duplicate, luciferase 2 days after infection.

Where two headings read alike, the source gives them in different places.

As for `COC(=O)[C@H](CNC(=O)C(=O)Nc1ccc(C)nc1)NC(=O)c1ccc(Nc2nc(NC3(c4ccc(Cl)cc4)CC3)nc(OCC(F)(F)F)n2)cc1` [Compound 3711], the EC50 under setting [1] was in the range of 0.01 to 10 nM.
`CC(C)(CNC(=O)c1ccc(Nc2nc(NC3(c4ccc(Cl)cc4)CC3)nc(OCC(F)(F)F)n2)cc1)NC(=O)C(=O)Nc1ccc(F)cc1F` [Compound 3438]: the EC50 under setting [2] fell in the range of 0.01 to 10 nM.
The same measure, in the same setting: with `CC(C)(CNC(=O)C(=O)Nc1ccc2c(c1)CCC2=O)CNC(=O)c1ccc(Nc2nc(NC3(c4ccc(Cl)cc4)CC3)nc(OCC(F)(F)F)n2)cc1` [Compound 3355] the figure was 0.01 to 10 nM.
Turning to `COC(=O)[C@H](CNC(=O)C(=O)NC1CC(C)CC(C)(C)C1)NC(=O)c1ccc(Nc2nc(NC3(c4ccc(Cl)cc4)CC3)nc(OCC(F)(F)F)n2)cc1` (stereo partly shown) [Compound 1060], the EC50 under setting [3] fell in the range of 0.01 to 10 nM.
Regarding `O=C(NCC[C@H](NC(=O)c1ccc(Nc2nc(NC3(c4ccc(Cl)cc4)CC3)nc(OCC(F)(F)F)n2)cc1)C(=O)O)C(=O)Nc1cccc(S(=O)(=O)N2CCCCC2)c1` [Compound 3641], the EC50 under setting [1] was in the range of 0.01 to 10 nM.
Take `CC(C)(CNC(=O)C(N)=O)CNC(=O)c1ccc(Nc2nc(NC3(c4ccc(Cl)cc4)CC3)nc(OCC(F)(F)F)n2)c(O)c1` [Compound 3478]: the EC50 under setting [2] was 0.01 to 10 nM.
Consider `Cc1ccc(CNC(=O)C(=O)NCC[C@H](NC(=O)c2ccc(Nc3nc(NC4(c5ccc(Cl)cc5)CC4)nc(OCC(F)(F)F)n3)cc2)C(=O)O)cc1` [Compound 1185], for which the EC50 under setting [3] was 0.01 to 10 nM.
As for `CC(C)(CNC(=O)C(=O)Nc1ccc(Cl)cc1Cl)CNC(=O)c1ccc(Nc2nc(NC3(c4ccc(Cl)cc4)CC3)nc(OCC(F)(F)F)n2)cc1` [Compound 3453], the EC50 under setting [2] lay in the range of 0.01 to 10 nM.
Still for that read-out and setting: with `CC(C)OC(=O)c1ccc(NC(=O)C(=O)NCC(C)(C)CNC(=O)c2ccc(Nc3nc(NC4(c5ccc(Cl)cc5)CC4)nc(OCC(F)(F)F)n3)cc2)cc1` [Compound 3259] the figure was 0.01 to 10 nM.
`O=C(NCC[C@@H](NC(=O)c1ccc(Nc2nc(NC3(c4ccc(Cl)cc4)CC3)nc(OCC(F)(F)F)n2)cc1)C(=O)O)C(=O)Nc1ccc(Cl)cc1` [Compound 1555]: the EC50 under setting [3] was 0.01 to 10 nM.
Consider `COC(=O)[C@H](CNC(=O)C(=O)Nc1ccc(OCCc2ccccn2)cc1)NC(=O)c1ccc(Nc2nc(NC3(c4ccc(Cl)cc4)CC3)nc(OCC(F)(F)F)n2)cc1` [Compound 3198], for which a half-maximal response under setting [4] (EC50) required 1.02 nM and the EC50 under setting [2] lay within 0.01 to 10 nM.
For `CC(C)CNC(=O)C(=O)NC(C)(C)CNC(=O)c1ccc(Nc2nc(NC3(c4ccc(Cl)cc4)CC3)nc(OCC(F)(F)F)n2)cc1` [Compound 3442], the EC50 under setting [2] is 0.01 to 10 nM.
Turning to `O=C(NC[C@H](NC(=O)c1ccc(Nc2nc(NC3(c4ccc(Cl)cc4)CC3)nc(OCC(F)(F)F)n2)cc1)C(=O)O)C(=O)Nc1ccc(-c2ncco2)cc1` [Compound 3292], the EC50 under setting [2] was 0.01 to 10 nM.
In the case of `O=C(NCC[C@H](NC(=O)c1ccc(Nc2nc(NC3(c4ccc(Cl)cc4)CC3)nc(OCC(F)(F)F)n2)cc1)C(=O)O)C(=O)Nc1ccccc1F` [Compound 1273], under setting [3], the EC50 lay within 0.01 to 10 nM.
For `Cc1cc(NC(=O)C(=O)NC(C)(C)CNC(=O)c2ccc(Nc3nc(NC4(c5ccc(Cl)cc5)CC4)nc(OCC(F)(F)F)n3)cc2)no1` [Compound 3422], the EC50 under setting [2] lay within 0.01 to 10 nM.
`Cn1ncc2ccc(NC(=O)C(=O)NCC(C)(C)CNC(=O)c3ccc(Nc4nc(NC5(c6ccc(Cl)cc6)CC5)nc(OCC(F)(F)F)n4)cc3)cc21` [Compound 3024]: under setting [2], the EC50 was in the range of 0.01 to 10 nM.
As for `COc1ccc(C2(Nc3nc(Nc4ccc(C(=O)NCC(C)(C)CNC(=O)C(N)=O)cc4)nc(OCC(F)(F)F)n3)CC2)cc1Cl` [Compound 3333], the EC50 under setting [2] lay in the range of 0.01 to 10 nM.
For the compound `Cc1noc2ccc(NC(=O)C(=O)NCC(C)(C)CNC(=O)c3ccc(Nc4nc(NC5(c6ccc(Cl)cc6)CC5)nc(OCC(F)(F)F)n4)cc3F)cc12` [Compound 3565], the EC50 under setting [2] lay in the range of 0.01 to 10 nM.
For the compound `Cc1ccc(NC(=O)C(=O)NCC(C)(C)CNC(=O)c2ccc(Nc3nc(NC4(c5ccc(Cl)cc5)CC4)nc(OCC(F)(F)F)n3)cc2F)cc1` [Compound 3554], the EC50 under setting [4] was determined as 0.029 nM and the EC50 under setting [2] lay in the range of 0.01 to 10 nM.
Take `Cc1cc(C)nc(N(C)c2ccc(NC(=O)C(=O)NCC[C@H](NC(=O)c3ccc(Nc4nc(NC5(c6ccc(Cl)cc6)CC5)nc(OCC(F)(F)F)n4)cc3)C(=O)O)cc2)n1` [Compound 3234]: a half-maximal response under setting [4] (EC50) required 0.24 nM and the EC50 under setting [2] lay in the range of 0.01 to 10 nM.
Take `O=C(NCC[C@@H](NC(=O)c1ccc(Nc2nc(NC3(c4ccc(Cl)cc4)CC3)nc(OCC(F)(F)F)n2)cc1)C(=O)O)C(=O)Nc1ccccc1-c1ccccc1` [Compound 1532]: the EC50 under setting [3] was in the range of 0.01 to 10 nM.
As to `COCc1ccc(NC(=O)C(=O)NCC[C@H](NC(=O)c2ccc(Nc3nc(NC4(c5ccc(Cl)cc5)CC4)nc(OCC(F)(F)F)n3)cc2)C(=O)OC)cc1` [Compound 3322], the EC50 under setting [2] lay within 0.01 to 10 nM.
As for `CC(CNC(=O)C(=O)Nc1ccccc1)CNC(=O)c1ccc(Nc2nc(NC3(c4ccc(Cl)cc4)CC3)nc(OCC(F)(F)F)n2)cc1` (stereo not shown) [Compound 3470], under setting [2], the EC50 was 0.01 to 10 nM.
`Cc1ccc(NC(=O)C(=O)NCC(C)(C)CNC(=O)c2ccc(Nc3nc(NC4(c5ccc(Cl)cc5)CC4)nc(OCc4ccc(OC(F)F)cc4)n3)cc2)cc1` [Compound 3840]: the EC50 under setting [1] lay in the range of 0.01 to 10 nM.
For `COc1ccc(NC(=O)C(=O)NCC[C@H](NC(=O)c2ccc(Nc3nc(NC4(c5ccc(Cl)cc5)CC4)nc(OCC(F)(F)F)n3)cc2)C(=O)O)cn1` [Compound 1262], under setting [3], the EC50 was in the range of 0.01 to 10 nM.
The same measure, in the same setting: in the case of `CC(C)(CNC(=O)C(=O)Nc1ccc(-c2ccc(F)cc2)cc1)CNC(=O)c1ccc(Nc2nc(NC3(c4ccc(Cl)cc4)CC3)nc(OCC(F)(F)F)n2)cc1` [Compound 1569] it was 0.01 to 10 nM; in that of `COCC(NC(=O)C(=O)NCC[C@H](NC(=O)c1ccc(Nc2nc(NC3(c4ccc(Cl)cc4)CC3)nc(OCC(F)(F)F)n2)cc1)C(=O)OC)C1CC1` (stereo partly shown) [Compound 1371], 0.01 to 10 nM.
With `COC(=O)[C@H](CCNC(=O)C(=O)Nc1ccc(-c2csc(C)n2)cc1)NC(=O)c1ccc(Nc2nc(NC3(c4ccc(Cl)cc4)CC3)nc(OCC(F)(F)F)n2)cc1` [Compound 3307], the half-maximal effective concentration (EC50) under setting [2] lay within 0.01 to 10 nM.
Same read-out and setting: with `CC(C)(CNC(=O)C(N)=O)CNC(=O)c1ccc(Nc2nc(NC3(c4ccc(Cl)cc4)CC3)nc(OCC(F)(F)F)n2)c(F)c1` [Compound 3386] the figure was 0.01 to 10 nM; with `O=C(NC[C@H](NC(=O)c1ccc(Nc2nc(NC3(c4ccccc4)CC3)nc(OCC(F)(F)F)n2)cc1)C(=O)O)C(=O)Nc1ccc(Oc2ccc(F)cc2)cc1` [Compound 3269], 0.01 to 10 nM.
Regarding `CS(=O)(=O)c1cccc(NC(=O)C(=O)NCC[C@H](NC(=O)c2ccc(Nc3nc(NC4(c5ccc(Cl)cc5)CC4)nc(OCC(F)(F)F)n3)cc2)C(=O)O)c1` [Compound 3632], the EC50 under setting [1] was in the range of 0.01 to 10 nM.
Take `COC(=O)[C@H](CNC(=O)C(=O)Nc1ccc(-c2ccccc2C)cc1)NC(=O)c1ccc(Nc2nc(NC3(c4ccc(Cl)cc4)CC3)nc(OCC(F)(F)F)n2)cc1` [Compound 3187]: under setting [2], the EC50 is 0.01 to 10 nM.
Regarding `COC(=O)[C@H](CCNC(=O)C(=O)Nc1ccc(CNC(N)=O)cc1)NC(=O)c1ccc(Nc2nc(NC3(c4ccc(Cl)cc4)CC3)nc(OCC(F)(F)F)n2)cc1` [Compound 3314], the EC50 under setting [2] lay within 0.01 to 10 nM.
Regarding `CC(C)(CNC(=O)C(=O)Nc1cc(F)cc(F)c1)CNC(=O)c1ccc(Nc2nc(NC3(c4ccc(Cl)cc4)CC3)nc(OCC(F)(F)F)n2)cc1` [Compound 1540], the EC50 under setting [3] lay in the range of 0.01 to 10 nM.
Same read-out and setting: with `Cc1nccn1CCNC(=O)C(=O)NC[C@H](NC(=O)c1ccc(Nc2nc(NC3(c4ccc(Cl)cc4)CC3)nc(OCC(F)(F)F)n2)cc1)C(=O)O` [Compound 1412] the figure was 10 to 1000 nM.
Turning to `O=C(Nc1ccc(F)cc1)C(=O)N(CCO)CCCNC(=O)c1ccc(Nc2nc(NC3(c4ccc(Cl)cc4)CC3)nc(OCC(F)(F)F)n2)cc1` [Compound 3499], the EC50 is 0.46 nM under setting [4] and 0.01 to 10 nM under setting [2].
As to `CC(C)(CNC(=O)C(=O)Nc1ccc(-c2ccc(C(F)(F)F)cc2)cc1)CNC(=O)c1ccc(Nc2nc(NC3(c4ccc(Cl)cc4)CC3)nc(OCC(F)(F)F)n2)cc1` [Compound 1594], the EC50 runs as follows: (Huh-7, 48 h, HCV pseudoparticle infection of Huh7 cells, luciferase 2 days after infection, average of duplicates) 0.05 nM; under setting [3], 0.01 to 10 nM.
As to `CC(C)(CNC(=O)C(=O)Nc1nc2c(Cl)ccc(Cl)c2s1)CNC(=O)c1ccc(Nc2nc(NC3(c4ccc(Cl)cc4)CC3)nc(OCC(F)(F)F)n2)cc1F` [Compound 3681], the EC50 under setting [1] was 0.01 to 10 nM.
Regarding `O=C(NC[C@H](NC(=O)c1ccc(Nc2nc(NC3(c4ccc(Cl)cc4)CC3)nc(OCC(F)(F)F)n2)cc1)C(=O)O)C(=O)Nc1ccc(N2CCCC2)nc1` [Compound 3776], the EC50 under setting [1] is 0.01 to 10 nM.
Regarding `COC(=O)[C@H](CCNC(=O)C(=O)NCC1CCCN(C(=O)OC(C)(C)C)C1)NC(=O)c1ccc(Nc2nc(NC3(c4ccc(Cl)cc4)CC3)nc(OCC(F)(F)F)n2)cc1` (stereo partly shown) [Compound 1200], the EC50 under setting [3] fell in the range of 0.01 to 10 nM.
In the case of `CCc1ccc(NC(=O)C(=O)NC[C@H](NC(=O)c2ccc(Nc3nc(NC4(c5ccc(Cl)cc5)CC4)nc(OCC(F)(F)F)n3)cc2)C(=O)OC)cc1` [Compound 3213], the EC50 under setting [2] was 0.01 to 10 nM.
On to `Cc1ccc(NC(=O)C(=O)NCC(C)(C)CNC(=O)c2ccc(Nc3nc(NC4(c5ccc(Cl)cc5)CC4)nc(OCc4ccc(C(C)C)cc4)n3)cc2F)cc1` [Compound 3827, N^1-(3-(4-((4-((1-(4-chlorophenyl)cyclopropyl)amino)-6-((4-isopropylbenzyl)oxy)-1,3,5-triazin-2-yl)amino)-2-fluorobenzamido)-2,2-dimethylpropyl)-N^2-(p-tolyl)oxalamide], for which the EC50 under setting [1] was 0.01 to 10 nM.
As for `COc1cccc(-c2ccc(NC(=O)C(=O)NCC(C)(C)CNC(=O)c3ccc(Nc4nc(NC5(c6ccc(Cl)cc6)CC5)nc(OCC(F)(F)F)n4)cc3F)cc2)c1` [Compound 3563], the EC50 under setting [2] is 0.01 to 10 nM.
Consider `O=C(NCC[C@H](NC(=O)c1ccc(Nc2nc(NC3(c4ccc(Cl)cc4)CC3)nc(OCC(F)(F)F)n2)cc1)C(=O)O)C(=O)Nc1ccc(F)cc1` [Compound 1272], for which the EC50 under setting [3] was in the range of 0.01 to 10 nM.
